Measured values as given in article PMC12867150, “A fungi-derived cyclic peptide enhances Th9-mediated antitumor immunity by targeting ZAP70 and SREBP1” (The Journal of Clinical Investigation, 2025).

Assays:
dendritic cells (DCs) = assay: Flow cytometry of dendritic cells (S1J-K); assay type: in vivo, mouse; set-up: key to Frequencies of DC in Spleen / Frequencies of DC in LN: % of cells; conditions: for Frequencies of DC in LN: Supplemental Figure 1K left; for number of DC in LN: Supplemental Figure 1K right; for DC (CD11c) gate number: representative flow plot; for Frequencies of DC in Spleen: Supplemental Figure 1J left; for number of DC in Spleen: Supplemental Figure 1J right
Procedure: C57BL/6 mice were subcutaneously injected with 5 × 10^5 B16-OVA melanoma cells. Five days after tumor implantation, mice received an intravenous infusion of 2 × 10^6 in vitro–differentiated Th9 cells (cultured for 5 days), which were derived from OT-II CD45.1 donor mice, accompanied by 4 × 10^5 OVA peptide–pulsed DCs via the tail vein. To enhance T cell engraftment and facilitate lymphodepletion, a single intraperitoneal injection of cyclophosphamide (200 mg/kg, Sigma, catalog C0768) was administered 1 day prior to T cell transfer. Mice were euthanized at designated time points for the collection and analysis of spleens, tumor-draining lymph nodes, and tumor tissues.
Details regarding staining panels (human and mouse), reagents (including clones and catalog numbers), acquisition settings, compensation/controls, and analysis procedures are provided in Supplemental Methods. […]
Figure S1. EpA enhances immune responses. […]
Representative plots, frequencies, and total numbers of dendritic cells (DCs) in […]
spleens (J) and LNs (K). […]
Statistical analysis was performed using two-way ANOVA with Tukey’s post hoc test (A), one-way ANOVA with Tukey’s post hoc test (B) or two-tailed unpaired Student’s t-test (D and G–M). ns, not significant. *p < 0.05, **p < 0.01, ****p < 0.0001.
(also on this page, place not known: Mouse weight (g) CtrlEpA CtrlEpA CtrlEpA0 I CD45.1+ T cells (%) CtrlEpA CD4+ T cells (%) CtrlEpA CtrlEpA CtrlEpA FSC CD8 CD8 FSC FSC FSC BNumber of CD45.1+ T cells (×103 per mgĎ Number of CD4+ T cells (×104 per mgĎ DC (%)NK cells (%) NK cells (%) DC (%) Number of DC (×103 per mg) Number of NK cells (×105) Number of NK cells (×103 per mg) Number of DC (×105) FSC FSC FSC CD8 CtrlEpA CtrlEpA CtrlEpA CD8+ T cells (%) Number of CD8+ T cells (×104 per mgĎ nsns ns nsns ns 40 IL-6 (pg/ml))

phosphorylated ZAP70 = assay: Flow cytometry of phosphorylated ZAP70 in Th9 cells (Figure 5E); assay type: cell-based, mouse; conditions: 30 minutes after activation; result in words
Procedure: Details regarding staining panels (human and mouse), reagents (including clones and catalog numbers), acquisition settings, compensation/controls, and analysis procedures are provided in Supplemental Methods.
BioLegend, Cat. No. 422301 or Mouse TruStain FcX™, BioLegend, Cat. No. 101319) for 10 minutes at 4°C. For surface marker detection, cells were stained with fluorochrome-conjugated monoclonal antibodies in 96-well V-bottom plates and incubated on ice for 30 minutes. After staining, cells were washed twice and resuspended in FACS buffer for analysis.
Prior to intracellular cytokine staining, cells were restimulated for 4 hours with PMA (Absin, Cat. No. abs9107), ionomycin (Sigma-Aldrich, Cat. No. I0634), and brefeldin A (MedChemExpress, Cat. No. HY-16592). For intracellular cytokine staining, cells were first surface-stained as described above, then fixed and permeabilized using the BD Cytofix/Cytoperm™ kit (BD Biosciences, Cat. No. 554714) according to the manufacturer ’s protocol. Intracellular proteins were stained with directly conjugated antibodies targeting IL-9, IL-17a, IL-4, IFN-γ, TNF-α, FOXP3, p-ZAP70, Perforin, and […]
Antibodies used for mouse samples included those against IL-9 (PE, clone RM9A4, Biolegend, Cat. No. 514104), IFN-γ (PE, clone XMG1.2, Biolegend, Cat. No.
Cat. No. 103138), CD4 (APC/Cy7, clone E-AB-F1353UJ, Elabscience, Cat. No. […]

anteiso-C15 Leu7 surfactin [EpA]
Frequencies of DC in LN (dendritic cells (DCs); LN, replicate 1): 2.19
Frequencies of DC in LN (dendritic cells (DCs); LN, replicate 2): 1.85
Frequencies of DC in LN (dendritic cells (DCs); LN, replicate 3): 1.69
Frequencies of DC in LN (dendritic cells (DCs); LN, replicate 4): 1.46
number of DC in LN (dendritic cells (DCs); LN, replicate 1): 3234.29
number of DC in LN (dendritic cells (DCs); LN, replicate 2): 2390.2
number of DC in LN (dendritic cells (DCs); LN, replicate 3): 1334.11
number of DC in LN (dendritic cells (DCs); LN, replicate 4): 1093.89
DC (CD11c) gate number (dendritic cells (DCs); LN, Figure S1K): 2.19
Frequencies of DC in Spleen (dendritic cells (DCs); Spleen, replicate 1): 1.58
Frequencies of DC in Spleen (dendritic cells (DCs); Spleen, replicate 2): 1.85
Frequencies of DC in Spleen (dendritic cells (DCs); Spleen, replicate 3): 1.61
Frequencies of DC in Spleen (dendritic cells (DCs); Spleen, replicate 4): 3.57
number of DC in Spleen (dendritic cells (DCs); Spleen, replicate 1): 143005
number of DC in Spleen (dendritic cells (DCs); Spleen, replicate 2): 161881
number of DC in Spleen (dendritic cells (DCs); Spleen, replicate 3): 145729
number of DC in Spleen (dendritic cells (DCs); Spleen, replicate 4): 275281
DC (CD11c) gate number (dendritic cells (DCs); Spleen, Figure S1J): 1.85
DC frequencies and total counts (dendritic cells (DCs); spleens and lymph nodes, result in words): significantly elevated
ZAP70 phosphorylation (phosphorylated ZAP70): significantly enhanced ZAP70 phosphorylation
